Patent publication US10543189B2, “2-acetylnaphtho[2,3-b]furan -4,9-dione for use on treating cancer” (Boston Biomedical, Inc., priority 2013, dated 2020)

Experiments:
[1] = Phase 1 extension study of higher strength capsule (DP2A): adverse events; type: in vivo; details: AE possibly related to BBI608
Excerpt: However, with the higher strength capsules, we observed worsening gastrointestinal adverse effects including nausea, vomiting, and diarrhea in patients.
Additional studies were run using an oral formulation of the Compound of the Invention, specifically a higher strength capsule formulation (DP2A). As described herein, the Compound of the Invention blocks cancer stem cell (CSC) self-renewal and induces cell death in CSC as well as non-stem cancer cells by inhibiting Stat3, β-catenin, and Nanog pathways, and has shown potent anti-tumor and anti-metastatic activities pre-clinically. […] The studies described herein were designed as a phase 1 extension study to evaluate a formulation designed for pivotal trials to determine pharmacokinetics (PK) in patients with advanced cancer.
On Day 1, patients received a single 500 mg dose of an oral administration formulation of the Compound of the Invention (DP1). On Day 4 and Day 8, a higher strength capsule designed for pivotal trials (DP2A) was given with fasting then fed conditions. DP2A was then administered daily until disease progression or unacceptable toxicity. Endpoints were safety, PK and preliminary anticancer activity.

[2] = Safety of highly pure Compound 1 in animal experiments; type: in vivo; details: highly pure Compound 1, mice
Procedure: For example, FIG. 13 of WO 2011/116398 and WO 2011/116399 illustrates the toxicity observed with a composition with about 90% purity for Compound 1, while FIG. 14 of WO 2011/116398 and WO 2011/116399 illustrates that the highly pure compositions having about 95% or greater purity for Compound 1 are safe and effective. In a Phase 1 study, the dose of Compound 1 was escalated from 20 mg to 2000 mg/day, and a maximum tolerated dose (MTD) not reached. […] The clinical safety profile of the substantially pure compositions of Compound 1 is among the best for oncology drugs in history.

## CC(=O)c1cc2c(o1)C(=O)c1ccccc1C2=O [Compound 1, 2-acetylnaphtho[2,3-b]furan-4,9-dione]
[1]; q 4 h dosing (N = 17)
  hypophosphatemia, Grade 3, %: 5.9%
[1]; q 12 h dosing (N = 11)
  Abdominal cramps/pain, Grade 1 or 2, # Subjects: 5
  Abdominal cramps/pain, Grade 1 or 2, %: 45.5%
  Abdominal cramps/pain, Grade 3, # Subjects: 0
  Abdominal cramps/pain, Grade 3, %: 0.0%
  Anorexia, Grade 1 or 2, # Subjects: 1
  Anorexia, Grade 1 or 2, %: 9.1%
  Anorexia, Grade 3, # Subjects: 0
  Anorexia, Grade 3, %: 0.0%
  Bloated abdomen, Grade 1 or 2, # Subjects: 0
  Bloated abdomen, Grade 1 or 2, %: 0.0%
  Bloated abdomen, Grade 3, # Subjects: 0
  Bloated abdomen, Grade 3, %: 0.0%
  Dehydration, Grade 1 or 2, # Subjects: 0
  Dehydration, Grade 1 or 2, %: 0.0%
  Dehydration, Grade 3, # Subjects: 0
  Dehydration, Grade 3, %: 0.0%
  Depression, Grade 1 or 2, # Subjects: 1
  Depression, Grade 1 or 2, %: 9.1%
  Depression, Grade 3, # Subjects: 0
  Depression, Grade 3, %: 0.0%
  Diarrhea, Grade 1 or 2, # Subjects: 7
  Diarrhea, Grade 1 or 2, %: 63.6%
  Diarrhea, Grade 3, # Subjects: 0
  Diarrhea, Grade 3, %: 0.0%
  Dysgusia, Grade 1 or 2, # Subjects: 0
  Dysgusia, Grade 1 or 2, %: 0.0%
  Dysgusia, Grade 3, # Subjects: 0
  Dysgusia, Grade 3, %: 0.0%
  Fatigue/weakness, Grade 1 or 2, # Subjects: 4
  Fatigue/weakness, Grade 1 or 2, %: 36.4%
  Fatigue/weakness, Grade 3, # Subjects: 1
  Fatigue/weakness, Grade 3, %: 9.1%
  Flatulence, Grade 1 or 2, # Subjects: 2
  Flatulence, Grade 1 or 2, %: 18.2%
  Flatulence, Grade 3, # Subjects: 0
  Flatulence, Grade 3, %: 0.0%
  Nausea, Grade 1 or 2, # Subjects: 2
  Nausea, Grade 1 or 2, %: 18.2%
  Nausea, Grade 3, # Subjects: 0
  Nausea, Grade 3, %: 0.0%
  Rectal/Anal Burning, Grade 1 or 2, # Subjects: 1
  Rectal/Anal Burning, Grade 1 or 2, %: 9.1%
  Rectal/Anal Burning, Grade 3, # Subjects: 0
  Rectal/Anal Burning, Grade 3, %: 0.0%
  Reflux (also heartburn), Grade 1 or 2, # Subjects: 0
  Reflux (also heartburn), Grade 1 or 2, %: 0.0%
  Reflux (also heartburn), Grade 3, # Subjects: 0
  Reflux (also heartburn), Grade 3, %: 0.0%
  Urine Color Change, Grade 1 or 2, # Subjects: 0
  Urine Color Change, Grade 1 or 2, %: 0.0%
  Urine Color Change, Grade 3, # Subjects: 0
  Urine Color Change, Grade 3, %: 0.0%
  Vomiting, Grade 1 or 2, # Subjects: 1
  Vomiting, Grade 1 or 2, %: 9.1%
  Vomiting, Grade 3, # Subjects: 0
  Vomiting, Grade 3, %: 0.0%
  Weight loss, Grade 1 or 2, # Subjects: 0
  Weight loss, Grade 1 or 2, %: 0.0%
  Weight loss, Grade 3, # Subjects: 0
  Weight loss, Grade 3, %: 0.0%
  Xerostomia, Grade 1 or 2, # Subjects: 2
  Xerostomia, Grade 1 or 2, %: 18.2%
  Xerostomia, Grade 3, # Subjects: 0
  Xerostomia, Grade 3, %: 0.0%
  hypophosphatemia, Grade 1 or 2, # Subjects: 0
  hypophosphatemia, Grade 1 or 2, %: 0.0%
  hypophosphatemia, Grade 3, # Subjects: 0
  hypophosphatemia, Grade 3, %: 0.0%
[2]
  adverse effects: No signs of any adverse effects
